Measurements from ChEMBL document CHEMBL3132744, “Structureactivity relationship studies of miniproteins targeting the androgen receptorcoactivator interaction” (Medchemcomm, 2013).
Square brackets hold non-standard residues; d marks the D form. Peptide text beside a SMILES is read from it. Phe(4-Cl) = N[C@@H](Cc1ccc(Cl)cc1)C(=O)O; Cha = N[C@@H](CC1CCCCC1)C(=O)O

These compounds were tested against T1, Androgen receptor (Homo sapiens, UniProt P10275) (assay: Displacement of fluorescein-CSSRFESLFAGEKESR from human androgen receptor-LBD after 1 hr by fluorescence polarization assay).
T1 sequence (P10275 whole entry): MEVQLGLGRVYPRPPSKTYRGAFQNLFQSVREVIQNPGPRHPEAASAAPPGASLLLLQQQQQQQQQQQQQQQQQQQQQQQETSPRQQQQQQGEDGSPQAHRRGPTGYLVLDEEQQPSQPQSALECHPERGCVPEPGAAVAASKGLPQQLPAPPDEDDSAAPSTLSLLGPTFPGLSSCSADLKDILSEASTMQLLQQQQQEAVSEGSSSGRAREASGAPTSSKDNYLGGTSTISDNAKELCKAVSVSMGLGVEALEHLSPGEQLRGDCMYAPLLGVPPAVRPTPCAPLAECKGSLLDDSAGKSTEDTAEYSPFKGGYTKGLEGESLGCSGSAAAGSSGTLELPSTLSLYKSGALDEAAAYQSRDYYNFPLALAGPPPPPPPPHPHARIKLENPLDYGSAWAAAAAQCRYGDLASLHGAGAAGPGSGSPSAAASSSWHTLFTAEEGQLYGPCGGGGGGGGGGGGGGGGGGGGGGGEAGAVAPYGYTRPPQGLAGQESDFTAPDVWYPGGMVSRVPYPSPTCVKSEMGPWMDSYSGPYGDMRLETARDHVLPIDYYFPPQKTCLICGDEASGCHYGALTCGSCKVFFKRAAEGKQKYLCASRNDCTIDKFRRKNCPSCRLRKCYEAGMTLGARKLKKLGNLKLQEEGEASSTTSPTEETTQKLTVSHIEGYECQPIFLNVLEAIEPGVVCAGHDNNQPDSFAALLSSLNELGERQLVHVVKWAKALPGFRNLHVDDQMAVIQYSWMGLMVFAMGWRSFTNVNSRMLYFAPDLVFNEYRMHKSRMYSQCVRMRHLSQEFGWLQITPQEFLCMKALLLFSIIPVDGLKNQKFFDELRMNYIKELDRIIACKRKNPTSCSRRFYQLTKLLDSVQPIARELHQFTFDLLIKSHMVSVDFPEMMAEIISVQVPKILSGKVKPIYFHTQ

| SMILES | Ki [µM] |
| --- | --- |
| CC(C)C[C@H](NC(=O)[C@H](CS)NC(=O)[C@H](CC(N)=O)NC(=O)[C@H](Cc1ccc(Cl)cc1)NC(=O)[C@H](Cc1ccc(O)cc1)NC(=O)[C@H](CS)NC(=O)[C@H](C)N)C(=O)N[C@@H](Cc1ccccc1)C(=O)N[C@@H](CCC(=O)O)C(=O)NCC(=O)N[C@@H](CC(N)=O)C(=O)N[C@@H](CC(=O)O)C(=O)N[C@@H](CCC(=O)O)C(=O)N[C@@H](CCC(=O)O)C(=O)N[C@H](C(=O)N[C@@H](CS)C(=O)N[C@@H](CCCCN)C(=O)N[C@@H](CCC(=O)O)C(=O)N[C@@H](Cc1c[nH]c2ccccc12)C(=O)N[C@@H](CS)C(=O)O)[C@@H](C)O (H-ACY[Phe(4-Cl)]NCLFEGNDEETCKEWC-OH) | 3 |
| CC(C)C[C@H](NC(=O)[C@H](CCC(=O)O)NC(=O)[C@H](CS)NC(=O)[C@H](Cc1ccccc1)NC(=O)[C@H](CCCNC(=N)N)NC(=O)[C@@H](N)CC(N)=O)C(=O)N[C@@H](Cc1ccccc1)C(=O)N[C@@H](CS)C(=O)N[C@@H](Cc1ccccc1)C(=O)N[C@@H](CCC(N)=O)C(=O)NCC(=O)N[C@H](C(=O)NCC(=O)N[C@@H](CC(=O)O)C(=O)N[C@H](C(=O)N[C@@H](CCCCN)C(=O)N[C@@H](C)C(=O)N[C@@H](CS)C(=O)N[C@@H](CCC(=O)O)C(=O)N[C@@H](Cc1c[nH]c2ccccc12)C(=O)N[C@@H](C)C(=O)N[C@@H](CS)C(=O)N[C@@H](CCC(N)=O)C(=O)O)C(C)C)[C@@H](C)O (H-NRFCELFCFQGTGDVKACEWACQ-OH) | 3.6 |
| CC[C@H](C)[C@H](NC(=O)[C@H](CS)NC(=O)[C@H](Cc1ccccc1)NC(=O)[C@H](CC(C)C)NC(=O)[C@H](CCC(=O)O)NC(=O)[C@H](CS)NC(=O)[C@H](Cc1ccccc1)NC(=O)[C@H](CCCNC(=N)N)NC(=O)[C@@H](N)CC(N)=O)C(=O)N[C@@H](CCC(N)=O)C(=O)N[C@@H](CC(=O)O)C(=O)N[C@H](C(=O)NCC(=O)N[C@@H](CC(=O)O)C(=O)N[C@H](C(=O)N[C@@H](CCCCN)C(=O)N[C@@H](C)C(=O)N[C@@H](CS)C(=O)N[C@@H](CCC(=O)O)C(=O)N[C@@H](Cc1c[nH]c2ccccc12)C(=O)N[C@@H](C)C(=O)N[C@@H](CS)C(=O)N[C@@H](CCC(N)=O)C(=O)O)C(C)C)[C@@H](C)O (H-NRFCELFCIQDTGDVKACEWACQ-OH) | 2.1 |
| CC[C@H](C)[C@H](NC(=O)[C@H](CS)NC(=O)[C@H](Cc1ccccc1)NC(=O)[C@H](CC(C)C)NC(=O)[C@H](CCC(=O)O)NC(=O)[C@H](CS)NC(=O)[C@H](Cc1ccccc1)NC(=O)[C@H](CCCNC(=N)N)NC(=O)[C@@H](N)CC(N)=O)C(=O)N[C@@H](CCC(N)=O)C(=O)NCC(=O)N[C@H](C(=O)N[C@@H](CCC(=O)O)C(=O)N[C@@H](CC(=O)O)C(=O)N[C@H](C(=O)N[C@@H](CCCCN)C(=O)N[C@@H](C)C(=O)N[C@@H](CS)C(=O)N[C@@H](CCC(=O)O)C(=O)N[C@@H](Cc1c[nH]c2ccccc12)C(=O)N[C@@H](C)C(=O)N[C@@H](CS)C(=O)N[C@@H](CCC(N)=O)C(=O)O)C(C)C)[C@@H](C)O (H-NRFCELFCIQGTEDVKACEWACQ-OH) | 3 |
| CC[C@H](C)[C@H](NC(=O)[C@H](CS)NC(=O)[C@H](Cc1ccccc1)NC(=O)[C@H](CC(C)C)NC(=O)[C@H](CCC(=O)O)NC(=O)[C@H](CS)NC(=O)[C@H](Cc1ccccc1)NC(=O)[C@H](CCCNC(=N)N)NC(=O)[C@@H](N)CC(N)=O)C(=O)N[C@@H](CCC(N)=O)C(=O)NCC(=O)N[C@H](C(=O)NCC(=O)N[C@@H](CC(=O)O)C(=O)N[C@H](C(=O)N[C@@H](CCCCN)C(=O)N[C@@H](C)C(=O)N[C@@H](CS)C(=O)N[C@@H](CCC(=O)O)C(=O)N[C@@H](CCC(=O)O)C(=O)N[C@@H](C)C(=O)N[C@@H](CS)C(=O)N[C@@H](CCC(N)=O)C(=O)O)C(C)C)[C@@H](C)O (H-NRFCELFCIQGTGDVKACEEACQ-OH) | 1.3 |
| CC[C@H](C)[C@H](NC(=O)[C@H](CS)NC(=O)[C@H](CC1CCCCC1)NC(=O)[C@H](CC(C)C)NC(=O)[C@H](CCC(=O)O)NC(=O)[C@H](CS)NC(=O)[C@H](Cc1ccccc1)NC(=O)[C@H](CCCNC(=N)N)NC(=O)[C@@H](N)CC(N)=O)C(=O)N[C@@H](CCC(N)=O)C(=O)NCC(=O)N[C@H](C(=O)NCC(=O)N[C@@H](CC(=O)O)C(=O)N[C@H](C(=O)N[C@@H](CCCCN)C(=O)N[C@@H](C)C(=O)N[C@@H](CS)C(=O)N[C@@H](CCC(=O)O)C(=O)N[C@@H](Cc1c[nH]c2ccccc12)C(=O)N[C@@H](C)C(=O)N[C@@H](CS)C(=O)N[C@@H](CCC(N)=O)C(=O)O)C(C)C)[C@@H](C)O (H-NRFCEL[Cha]CIQGTGDVKACEWACQ-OH) | 56 |

More lines, now with the values ahead:

| Ki [µM] | SMILES |
| --- | --- |
| 1.9 | CC[C@H](C)[C@H](NC(=O)[C@H](CS)NC(=O)[C@H](Cc1ccccc1)NC(=O)[C@H](CC(C)C)NC(=O)[C@H](CCC(=O)O)NC(=O)[C@H](CS)NC(=O)[C@H](Cc1ccccc1)NC(=O)[C@H](CCCNC(=N)N)NC(=O)[C@@H](N)CCCCN)C(=O)N[C@@H](CCC(N)=O)C(=O)NCC(=O)N[C@H](C(=O)NCC(=O)N[C@@H](CC(=O)O)C(=O)N[C@H](C(=O)N[C@@H](CCCCN)C(=O)N[C@@H](C)C(=O)N[C@@H](CS)C(=O)N[C@@H](CCC(=O)O)C(=O)N[C@@H](Cc1c[nH]c2ccccc12)C(=O)N[C@@H](C)C(=O)N[C@@H](CS)C(=O)N[C@@H](CCC(N)=O)C(=O)O)C(C)C)[C@@H](C)O (H-KRFCELFCIQGTGDVKACEWACQ-OH) |
| 10 | CC[C@H](C)[C@H](NC(=O)[C@H](CS)NC(=O)[C@H](Cc1ccccc1)NC(=O)[C@H](CC(C)C)NC(=O)[C@H](CCC(=O)O)NC(=O)[C@H](CS)NC(=O)[C@H](Cc1ccccc1)NC(=O)[C@H](CC(C)C)NC(=O)[C@@H](N)CC(N)=O)C(=O)N[C@@H](CCC(N)=O)C(=O)NCC(=O)N[C@H](C(=O)NCC(=O)N[C@@H](CC(=O)O)C(=O)N[C@H](C(=O)N[C@@H](CCCCN)C(=O)N[C@@H](C)C(=O)N[C@@H](CS)C(=O)N[C@@H](CCC(=O)O)C(=O)N[C@@H](Cc1c[nH]c2ccccc12)C(=O)N[C@@H](C)C(=O)N[C@@H](CS)C(=O)N[C@@H](CCC(N)=O)C(=O)O)C(C)C)[C@@H](C)O (H-NLFCELFCIQGTGDVKACEWACQ-OH) |
| 2.1 | CC[C@H](C)[C@H](NC(=O)[C@H](CS)NC(=O)[C@H](Cc1ccccc1)NC(=O)[C@H](CC(C)C)NC(=O)[C@H](CCC(=O)O)NC(=O)[C@H](CS)NC(=O)[C@H](Cc1ccccc1)NC(=O)[C@H](CCCNC(=N)N)NC(=O)[C@@H](N)CC(N)=O)C(=O)N[C@@H](CCC(=O)O)C(=O)NCC(=O)N[C@H](C(=O)NCC(=O)N[C@@H](CC(=O)O)C(=O)N[C@H](C(=O)N[C@@H](CCCCN)C(=O)N[C@@H](C)C(=O)N[C@@H](CS)C(=O)N[C@@H](CCC(=O)O)C(=O)N[C@@H](Cc1c[nH]c2ccccc12)C(=O)N[C@@H](C)C(=O)N[C@@H](CS)C(=O)N[C@@H](CCC(N)=O)C(=O)O)C(C)C)[C@@H](C)O (H-NRFCELFCIEGTGDVKACEWACQ-OH) |
| 4.1 | CC[C@H](C)[C@H](NC(=O)[C@H](CS)NC(=O)[C@H](Cc1ccccc1)NC(=O)[C@H](CC(C)C)NC(=O)[C@H](CCC(=O)O)NC(=O)[C@H](CS)NC(=O)[C@H](Cc1ccccc1)NC(=O)[C@H](CCCNC(=N)N)NC(=O)[C@@H](N)CC(N)=O)C(=O)N[C@@H](CCC(N)=O)C(=O)NCC(=O)N[C@H](C(=O)NCC(=O)N[C@@H](CC(=O)O)C(=O)N[C@H](C(=O)N[C@@H](CCCCN)C(=O)N[C@@H](C)C(=O)N[C@@H](CS)C(=O)N[C@@H](CCC(=O)O)C(=O)N[C@@H](Cc1c[nH]c2ccccc12)C(=O)N[C@@H](C)C(=O)N[C@@H](CS)C(=O)N[C@@H](CCC(N)=O)C(=O)O)C(C)C)[C@@H](C)O (H-NRFCELFCIQGTGDVKACEWACQ-OH) |
